Assays:
A549 and H1975 cells [1] = experiment: Apoptosis assay, co-treatment with Proscillaridin A; format: cell-based
Method: (§1) A549, H1975 and HCC827 cells (1×10^5 cells /well) were seeded in a 6 -well plate for 24 h, and treated with the indicated concentrations of Proscillaridin A for an additional 24 h at 37° C. After indicated hours, the cells were washed by ice-cold 1×PBS once and harvested by trypsination. Then cell were centrifuged, collected and resuspended in ice-cold 1×PBS. After removing the supernatants, cell pellets were re-suspended in 100 μL 1× Annexin-binding buffer. The cells were then double-stained with Annexin-V FITC and PI (100 μg/mL) of 2 μL respectively for 15 min at room temperature in dark. After that, 300 μL 1× Annexin-binding buffer was added. Apoptotic cells were quantitatively counted by a BD Aria III Flow Cytometer (BD Biosciences, San Jose, Calif., USA).

A549 cells [2] = experiment: MTT cytotoxicity assay; format: cell-based; settings: A549, EGFR wild type, 24 h
Method: (§2) Cells were seeded in a 96-well microplate with 3000-5000 cells/well confluence, and put into the incubator overnight for cells adhesion. Different concentrations of drug Proscillaridin A were added with Dimethyl sulfoxide (DMSO) as vehicle control. The microplates were incubated for further 24 h. Each dosage was repeated in triplicate. 10 μL of MTT (5 mg/mL) solution was added to each well. The plate was placed back into the incubator for 4 h. After that, 100 μL of resolved solution (10% SDS and 0.1 mM HCL) was added to each well.
(§3) Before dissolving the formazan crystals, the microplate was put back into the incubator for another 4 h. The absorbance of the plate was measured at 570 nm with reference 650 nm by a microplate reader (Tecan, Morrisville, N.C., USA). Cell viability was calculated by percentages of the absorbance of the treatment group divided by the absorbance of untreated group. At least three independent experiments were performed for data analysis and presentation.

[3] = tested on: CCD19-LU normal lung fibroblast cell line; experiment: MTT cytotoxicity assay; format: cell-based
Method: as §2, §3

H1975 cells [4] = experiment: MTT cytotoxicity assay; format: cell-based; settings: H1975, EGFR double mutant, 24 h
Method: as §2, §3

H2228 cells = experiment: MTT cytotoxicity assay; format: cell-based; settings: H2228, EML4-ALK, 24 h
Method: as §2, §3

H358 cells = experiment: MTT cytotoxicity assay; format: cell-based; settings: H358, KRAS, 24 h
Method: as §2, §3

HCC78 cells = experiment: MTT cytotoxicity assay; format: cell-based; settings: HCC78, SLC3482-ROS, 24 h
Method: as §2, §3

HCC827 cells [5] = experiment: MTT cytotoxicity assay; format: cell-based; settings: HCC827, EGFR exon 19 deletion, 24 h
Method: as §2, §3

Na^+/K^+ ATPase = Na^+/K^+ ATPase enzyme activity assay; format: biochemical; settings: in vitro, enzyme from porcine cerebral cortex
Method: The enzymatic activity of Na^+/K^+ ATPase (purchased from Sigma as lyophilized powder from porcine cerebral cortex) was measured by colorimetric quantification of P, released during ATP hydrolysis. A previously published procedure was adapted with some modifications. Begin with incubating 10 μl of Na^+/K^+ ATPase (600 units/m1) with 2.5 μl of KCl/NaCl solution (45 mM KCl and 2 M NaCl) at 37° C. for 30 min with either 5 μl of DMSO (control) or 5 μl of P.A (in different indicated concentrations) in 67.5 μl of buffer (24 mM Tric HCl buffer with 0.68 mM ethylenediaminetetraacetic acid and 6.0 mM magnesium chloride, pH 7.8). ATP (5 μl of 80 mM solution) was then added, and the reaction mixture was incubated again at 37° C. for 15 min. Trichloroacetic acid (30 μl of 100% w/v) was then added to the reaction mixture followed by centrifugation for 5 min. Supernatant (50 μl aliquot) was transferred to a 96 well plated containing 100 μl of Taussky-Shorr reagent. The absorbance at 660 nm was read after incubation at RT for 5 min.

A549 cells [6] = experiment: Apoptosis assay (Annexin-V/PI flow cytometry); format: cell-based
Method: as §1

H1975 cells [7] = experiment: Apoptosis assay (Annexin-V/PI flow cytometry); format: cell-based
Method: as §1

HCC827 cells [8] = experiment: Apoptosis assay (Annexin-V/PI flow cytometry); format: cell-based; settings: HCC827, 50 nM, 24 h
Method: as §1

[9] = tested on: EGFR phosphorylation of tyrosine residue 1173 in H1975; experiment: Western blot of EGFR activation; format: cell-based; settings: H1975, 18 hours
Method: (§4) After incubation A549, H1975 and HCC827 cells with Proscillaridin A for 18 hours, cells were harvested and washed with cold 1× PBS. Then, cells were lysed with ice-cold RIPA lysis buffer with protease and phosphatase inhibitors added to extract the cell protein extraction. The supernatants were collected by centrifugation at 12,000 g, for 5 min. The quantitation of total protein extraction was measured by Bio-Rad DCTM protein assay kit (Bio-Rad, Philadelphia, Pa., USA). Then 35 μg of protein were loaded and electrophoretically separated on 8% SDS-PAGE gel and then transferred to Nitrocellulose (NC) membrane.
(§5) Membranes were blocked with 5% non-fat milk and […] containing 0.1% Tween-20 (TBST) for 1 h at room temperature. After 1 h, membranes were incubated with primary antibodies (1:1000 dilution) against β-actin, GAPDH, total/phosphor-EGFR, total/phosphor-AKT, total/phosphor-JNK, total/phosphor-AMPK, total/phosphor-ACC, phosphor-mTOR, IKK-α, Iκ-Bα, phosphor-NFκB-P65, Caspase-9, Caspase-7, BAX and Bcl-2 at 4° C. with gently shaking overnight. Membranes were washed with TBST for 3 times (5 min/time), and incubated with secondary fluorescent antibody (1:10000 dilutions) for 1 h at room temperature. Rewashing with TBST for 3 times (15 min/time), the stripes were visualized by LI-COR Odessy scanner (Belfast, Me., USA).

[10] = tested on: EGFR phosphorylation of tyrosine residue 1173 in HCC827; experiment: Western blot of EGFR activation; format: cell-based; settings: HCC827, 18 hours
Method: as §4, §5

[11] = tested on: A549, H1975 and HCC827 cells; experiment: Colony-formation assay; format: cell-based; settings: all three cell lines
Method: Colony-forming assay was performed as previously described. Briefly, About 300 cells were plated into every well of 6 -well plate with 2 ml of culture medium and grown at 37° C. with 5% CO2. After 48 h culture for cell adherence to the plate, rinsed with fresh medium, Proscillaridin A (with indicated different dosages) was added to the medium. 48 h later, the cells were washed twice with PBS and then incubated in drug-free medium. The medium was changed every 5 days. After culturing for additional 10 to 14 days, the medium was discarded and each dish was washed twice with PBS carefully. The cells were fixed with 3.7% Paraformaldehyde for 20 min and 0.2% crystal violet solution in 10% ethanol for 10 min. Excess stain was removed by washing repeatedly with PBS. All the procedures were done at room temperature. The plates can be stored at room temperature or at +4° C. for several months without any visible fading of the dye.

A549 and H1975 cells [12] = experiment: Measurement of intracellular calcium (Fluo-3); format: cell-based; settings: A549 and H1975, after 6 h
Method: Changes in intracellular free calcium were measured by a fluorescent dye, Fluo-3 as previously described. Briefly, A549 and H1975 cells were washed twice with culture media after Proscillaridin A treatment (6.25-25 nM) for 6 hours. Then cell suspensions were incubated with 5 μM Fluo-3 at 37° C. for 30 min. After the cells were washed twice with HBSS, the re-suspended cell samples were then subjected to FACS analysis. At least 10,000 events were analyzed.

[13] = tested on: PARP, Caspase-7, Caspase-9, AKT, BAX, Bcl-2; experiment: Western blot of apoptosis-related proteins; format: cell-based; settings: A549, H1975, HCC827
Method: as §4, §5

AMPK phosphorylation = experiment: Western blot; format: cell-based; settings: FIG. 8A
Method: as §4, §5

JNK phosphorylation = experiment: Western blot; format: cell-based; settings: FIG. 8A
Method: as §4, §5

NF-κB pathway = experiment: Western blot; format: cell-based; settings: dose-dependent
Method: as §4, §5

[14] = tested on: acetyl-CoA carboxylase (ACC) phosphorylation; experiment: Western blot; format: cell-based; settings: FIG. 8A
Method: as §4, §5

mTOR phosphorylation = experiment: Western blot; format: cell-based; settings: FIG. 8A
Method: as §4, §5

DR4 expression = experiment: Regular and quantitative RT-PCR; format: cell-based; settings: 12 h treatment
Method: Cells were incubated with Proscillaridin A for 12 hours. Total RNA was then extracted from treated cells using a TRIzol reagent (Invitrogen, Carlsbad, Calif., USA) following the manufacturer's instructions and was used to prepare cDNA. Quantitative real-time PCR was performed with High-productivity Real-Time quantitative PCR ViiA™7 (Life Technologies).
The glyceraldehyde […] dehydrogenase (GAPDH) gene was used as the reference gene. All data were means of fold change of triplicate analysis and normalized with those of GAPDH.

In the case of `CC(=O)OCOC(=O)CN(CC(=O)OCOC(C)=O)c1ccccc1OCCOc1ccccc1N(CC(=O)OCOC(C)=O)CC(=O)OCOC(C)=O` [BAPTA/AM], the “apoptotic cells after co-treatment with Proscillaridin A” value (A549 and H1975 cells [1]; Ca^2+ chelator co-treatment, flow cytometry) is reported as “significant decrease of apoptotic cells”.

For `c1cc(-c2cnn3cc(-c4ccc(OCCN5CCCCC5)cc4)cnc23)ccn1` [Compound C], the “apoptotic cells after co-treatment with Proscillaridin A” value (A549 and H1975 cells [1]; AMPK inhibitor co-treatment, A549 and H1975) was “partially weakened the apoptotic cells”.

For Proscillaridin A, the CC50 (A549 cells [2]) was 14 ± 2.8 nM, the CC50 ([3]; CCD19-LU normal fibroblast cell, 24 h) was greater than 400 nM and the “inhibition of cell proliferation in normal lung fibroblast cells” value ([3]; CCD19-LU, 30-folds higher concentrations of the CC50 in EGFR-dependent NSCLC cells) was “no significant inhibitory effect”. The CC50 (H1975 cells [4]) was 15 ± 3.6 nM, the CC50 (H2228 cells) was 23.6 ± 5.4 nM and the CC50 (H358 cells) was 25.8 ± 4.9 nM. It also gave a CC50 (HCC78 cells) of 37.6 ± 9.9 nM, a CC50 (HCC827 cells [5]) of 13.9 ± 1.8 nM and an IC50 (Na^+/K^+ ATPase) of 0.83 ± 0.3 nM. The apoptotic cells (A549 cells [6]; A549, 50 nM, 24 h) was “about 70%”, the “concentration at which significant induction of apoptosis starts” value (A549 cells [6]; A549, 24 h) was 12.5 nM and the apoptotic cells (H1975 cells [7]; H1975, 50 nM, 24 h) was “about 70%”. For the same molecule, the “concentration at which significant induction of apoptosis starts” value (H1975 cells [7]; H1975, 24 h) was 25 nM, the increase of apoptosis (HCC827 cells [8]) was “about 10%” and the “EGFR activation (phosphorylation of tyrosine residue 1173)” value [9] was “inhibited the EGFR activation”. The “EGFR activation (phosphorylation of tyrosine residue 1173)” value [10] was “inhibited the EGFR activation”, the “clonogenic growth (colony formation)” value [11] was “can suppress clonogenic growth” and the “cellular Ca^2+ level” value (A549 and H1975 cells [12]) was “remarkably increases the in vitro Ca^2+ level”. The AKT activation [13] was “inhibited”, the BAX level [13] was “up-regulated” and the Bcl-2 level [13] was “down-regulated”. The “PARP, Caspase-7 and Caspase-9 cleavage” value [13] was “cleaved and activated”, the “phosphorylation of AMPK” value (AMPK phosphorylation) was “significantly induced the phosphorylation of AMPK” and the “phosphorylation of JNK” value (JNK phosphorylation) was “significantly activated the phosphorylation of JNK”. For the same molecule, the NF-κB pathway activation (NF-κB pathway) was “significantly inhibited”, the “phosphorylation of ACC” value [14] was “significantly induced the phosphorylation” and the “phosphorylation of mTOR” value (mTOR phosphorylation) was “inhibited the phosphorylation of mTOR”. The DR4 gene expression (DR4 expression) was “significantly elevated”.
